Source: patent US9502658B2, “Fullerene derivatives and related materials, methods, and devices” (Nano-C, Inc., priority 2013, dated 2016)
Converted amounts (≈) assume the structure as drawn.

Experiment: Solubility in o-dichlorobenzene by UV-vis absorbance at 360 nm
Conditions: for solubility in o-dichlorobenzene: room temperature (about 22° C.)

CCCCC1c2ccccc2C(CCCC)C23c4c5c6c7c8c9c(c%10c%11c2c2c4c4c%12c5c5c6c6c8c8c%13c9c9c%10c%10c%11c%11c2c2c4c4c%12c%12c5c5c6c8c6c8c%13c9c9c%10c%10c%11c2c2c4c4c%12c5c6c5c8c9c%10c2c45)C713 (centres unmarked) [Fullerene 3]
solubility in o-dichlorobenzene: 9.3 mg/mL (≈ 9.92 mM)

CCCCCCC1c2ccccc2C(CCCCCC)C23c4c5c6c7c8c9c(c%10c%11c2c2c4c4c%12c5c5c6c6c8c8c%13c9c9c%10c%10c%11c%11c2c2c4c4c%12c%12c5c5c6c8c6c8c%13c9c9c%10c%10c%11c2c2c4c4c%12c5c6c5c8c9c%10c2c45)C713 (centres unmarked) [Fullerene 4]
solubility in o-dichlorobenzene: 45 mg/mL (≈ 45.3 mM)

CCCCCCCC1c2ccccc2C(CCCCCCC)C23c4c5c6c7c8c9c(c%10c%11c2c2c4c4c%12c5c5c6c6c8c8c%13c9c9c%10c%10c%11c%11c2c2c4c4c%12c%12c5c5c6c8c6c8c%13c9c9c%10c%10c%11c2c2c4c4c%12c5c6c5c8c9c%10c2c45)C713 (centres unmarked) [Fullerene 5]
solubility in o-dichlorobenzene: 20 mg/mL (≈ 19.6 mM)

c1ccc2c(c1)CC13c4c5c6c7c8c9c(c%10c%11c1c1c%12c4c4c%13c5c5c7c7c8c8c%14c9c%10c9c%10c%11c1c1c%11c%12c4c4c%12c%13c5c5c7c7c8c8c%14c9c9c%10c1c1c%11c4c4c%12c5c7c5c8c9c1c45)C63C2 (centres unmarked) [oQDM-C60, reference compound]
solubility in common organic solvents (in words, compared to the fullerenes according to the invention): lower solubility
solubility in o-dichlorobenzene: 5.8 mg/mL (≈ 7.03 mM)
